Results on two compounds are retold here after ChEMBL document CHEMBL1127930, “Design, synthesis and biological properties of structurally non-related endotoxin inhibitors” (Bioorg Med Chem Lett, 1994).

The assay relates to Escherichia coli. Kind of assay: Compound was evaluated to inhibit the LAL response produced by two endotoxin units of Escherichia coli LPS. Type of assay: functional, organism-based.

Compound `CCCCCCCCCCCCCC[N+](C)(C)C[C@@H]1OCO[C@H]1C[N+](C)(C)CCCCCCCCCCCCCC` came in with a Concentration of 75 µg/mL. Next, `CCCCCCCCCCCCCC[N+](C)(C)C[C@@H]1OC(C)(C)O[C@H]1C[N+](C)(C)CCCCCCCCCCCCCC`: 75 µg/mL.
